Tests used:
Type in all cases: biochemical, canine
PDE III [1] = target: T1, PDE III (Canis lupus familiaris, UniProt A0A8I3NYE0); assay: phosphodiesterase inhibition, PDE III (peak III PDE)
T1 construct: isolated from canine aortic smooth, ventricular or tracheal smooth muscle sources; from tissue; host or cells: canine aortic smooth, ventricular or tracheal smooth muscle; DEAE-cellulose peak III
T1 sequence (A0A8I3NYE0 1-1135): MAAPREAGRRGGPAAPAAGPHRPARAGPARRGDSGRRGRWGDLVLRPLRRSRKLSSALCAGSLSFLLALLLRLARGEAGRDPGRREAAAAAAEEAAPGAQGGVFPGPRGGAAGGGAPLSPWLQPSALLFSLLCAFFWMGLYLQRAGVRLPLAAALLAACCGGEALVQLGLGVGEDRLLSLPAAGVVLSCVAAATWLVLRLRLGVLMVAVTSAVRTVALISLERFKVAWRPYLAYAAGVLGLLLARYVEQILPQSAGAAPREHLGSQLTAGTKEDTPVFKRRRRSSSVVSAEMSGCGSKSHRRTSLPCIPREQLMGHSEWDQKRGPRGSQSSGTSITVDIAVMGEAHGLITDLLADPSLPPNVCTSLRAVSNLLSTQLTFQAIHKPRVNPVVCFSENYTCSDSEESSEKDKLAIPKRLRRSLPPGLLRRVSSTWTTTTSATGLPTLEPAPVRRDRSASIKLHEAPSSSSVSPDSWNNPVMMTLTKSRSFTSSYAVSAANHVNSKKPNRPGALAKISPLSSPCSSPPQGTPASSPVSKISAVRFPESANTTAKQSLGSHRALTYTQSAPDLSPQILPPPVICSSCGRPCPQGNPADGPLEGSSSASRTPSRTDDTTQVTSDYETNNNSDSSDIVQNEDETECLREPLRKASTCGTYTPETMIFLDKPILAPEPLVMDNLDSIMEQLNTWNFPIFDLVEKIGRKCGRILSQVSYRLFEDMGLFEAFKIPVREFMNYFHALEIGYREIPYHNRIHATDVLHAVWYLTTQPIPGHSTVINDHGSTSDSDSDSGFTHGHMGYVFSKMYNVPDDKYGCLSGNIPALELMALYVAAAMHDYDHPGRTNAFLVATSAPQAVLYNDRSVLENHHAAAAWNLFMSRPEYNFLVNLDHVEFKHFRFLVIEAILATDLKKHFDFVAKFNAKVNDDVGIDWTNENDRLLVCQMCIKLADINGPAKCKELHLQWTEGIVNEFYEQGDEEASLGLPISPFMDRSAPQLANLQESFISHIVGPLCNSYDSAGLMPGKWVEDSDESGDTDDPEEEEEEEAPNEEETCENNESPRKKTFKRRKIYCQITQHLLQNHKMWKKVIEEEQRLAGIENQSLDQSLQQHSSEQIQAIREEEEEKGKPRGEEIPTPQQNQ
Text: (§1) Multiple isozymic forms of cyclic nucleotide phosphodiesterase (PDE) exist in most tissues. […] A "low Km" cGMP form of PDE (also referred to as peak I PDE) also has been identified. Increases in cAMP and cGMP will relax both vascular smooth and bronchial smooth muscle. Selective PDE isozyme inhibition represents a novel subcellular mechanism by which increses in cAMP or cGMP and subsequent vaso- or broncho-relaxation may be achieved. Moreover, a component of positive inotropy may be retained, dependent upon the isozyme or tissue source specificity of an inhibitor. Thus, development of PDE isozyme inhibitors represents novel approaches for the discovery of agents useful for treating hypertension, congestive heart failure or asthma. For example, compounds having essentially high PDE III inhibitory activity are expected to have cardiotonic and vasodilatory (antihypertensive) activity. PDE isozymes (peak I and III) are isolated from canine aortic smooth, ventricular or tracheal smooth muscle sources by DEAE - cellulose column chromatography. Inhibition of both peaks by a putative inhibitor from any of these sources is quantitated. If ≥50% inhibition is detected at 30 μM, then an IC50 value and corresponding 95% confidence limits for both peaks is determined.
(§2) The procedures for the separation of the isozymes of PDE from animal tissue and the testing of the compounds of the invention for phosphodiesterase inhibition are essentially those described by Weishaar et al., Biochem. Pharmacol. 35:787-800 (1986) and Thompson et al., Adv. Cyclic Nucleotide Res. 10:69-92. Initial screening of test compounds with both peak I and peak III PDE isozymes is done at a concentration of 10, 30 or 100 μm, and each assay is performed in triplicate for each inhibitor. The IC50 values (concentration causing 50% inhibition) are then calculated from concentration-response curves as described by Tallarida and Murray, Manual of Pharmacologic Calculations with Computer Programs, Procedure 8, Graded Dose-Response, pp. 14-19, Springer-Verlag, New York, 1981.

PDE I [2] = assay: phosphodiesterase inhibition, PDE I (peak I PDE); details: for IC50: peak I PDE
Text: as §1, §2

PDE I [3] = assay: phosphodiesterase inhibition, PDE I (peak I PDE)
PDE III [4] = target: T1, PDE III; assay: phosphodiesterase inhibition, PDE III (peak III PDE); details: read-out: Percent Inhibition PDE III

Compound	IC50 (PDE III [1]) [µM]	IC50 (PDE I [2]) [µM]	also measured
O=c1[nH]c2cc(-c3ccncc3)c(C(F)(F)F)nc2[nH]1 [1(e), 1,3-Dihydro-6-(4-pyridinyl)-5-trifluoromethyl-2H-imidazo[4,5-b]pyridin-2-one]	0.023	52.9	–
O=c1[nH]c2cc(-c3cc[n+]([O-])cc3)c(C(F)(F)F)nc2[nH]1 [1(f), 1,3-Dihydro-6-(4-pyridinyl)-5-trifluoromethyl-2H-imidazo[4,5-b]pyridin-2-one N-(py)-oxide]	0.029	–	Percent Inhibition PDE I (PDE I [3]; at 1 μM): 0%
O=c1[nH]c2cc(-c3ccncc3)c(C(F)(F)C(F)(F)F)nc2[nH]1 [2(d), 1,3-Dihydro-6-(4-pyridinyl)-5-pentafluoroethyl-2H-imidazo[4,5-b]pyridin-2-one]	1.8	12	–
O=c1[nH]c2cc(-c3ccnc4ccccc34)c(C(F)(F)F)nc2[nH]1 [3(e), 1,3-Dihydro-6-(4-quinolinyl)-5-trifluoromethyl-2H-imidazo[4,5-b]pyridine-2-one]	–	–	inhibition at 1 µM (PDE III [4]): 9%; Percent Inhibition PDE I (PDE I [2]; at 100 μM): 4%
Cc1nc2[nH]c(=O)[nH]c2cc1-c1ccccc1 [4(c), 1,3-Dihydro-5-methyl-6-phenyl-2H-imidazo[4,5-b]pyridin-2-one]	0.27	–	Percent Inhibition PDE I (PDE I [3]; at 1000 μM): 38%
Cc1nc2[nH]c(=O)[nH]c2cc1-c1ccc([N+](=O)[O-])cc1 [Example 5, 1,3-Dihydro-5-methyl-6-(4-nitrophenyl)-2H-imidazo[4,5-b]pyridin-2-one]	0.009	–	Percent Inhibition PDE I (PDE I [3]; at 300 μM): 35%
Cc1nc2[nH]c(=O)[nH]c2cc1-c1ccc(N)cc1 [Example 6, 6-(4-Aminophenyl)-1,3-dihydro-5-methyl-2H-imidazo[4,5-b]pyridin-2-one]	0.5	45	–
Cc1nc2[nH]c(=O)[nH]c2cc1-c1ccc(NC(=O)C(F)(F)F)cc1 [Example 7, 1,3-Dihydro-5-methyl-6-[4-(trifluoroacetylamino)phenyl]-2H-imidazo[4,5-b]pyridin-2-one]	0.63	63.6	–
CCCCC(=O)Nc1ccc(-c2cc3[nH]c(=O)[nH]c3nc2C)cc1 [Example 11, 6-[4-(Butanecarbonylamino)phenyl]-1,3-dihydro-5-methyl-2H-imidazo[4,5-b]pyridin-2-one]	–	–	inhibition at 1 µM (PDE III [4]): 37%; Percent Inhibition PDE I (PDE I [3]; at 1 μM): 0%
Cc1ccc(S(=O)(=O)Nc2ccc(-c3cc4[nH]c(=O)[nH]c4nc3C)cc2)cc1 [Example 12, 1,3-Dihydro-5-methyl-6-[4-(p-toluenesulfonylamino)phenyl]-2H-imidazo[4,5-b]pyridin-2-one]	–	–	inhibition at 1 µM (PDE III [4]): 64%; Percent Inhibition PDE I (PDE I [3]; at 1 μM): 13%

More lines, main results first:

IC50 (PDE III [1]) [µM]	IC50 (PDE I [2]) [µM]	Compound	also measured
0.62	–	CC(=O)Nc1ccc(-c2cc3[nH]c(=O)[nH]c3nc2C)cc1 [Example 8, 6-[4-(Acetylamino)phenyl]-1,3-dihydro-5-methyl-2H-imidazo[4,5-b]pyridin-2-one]	Percent Inhibition PDE I (PDE I [2]; at 30 μM): 22%
0.47	45	Cc1nc2[nH]c(=O)[nH]c2cc1-c1ccc(NS(C)(=O)=O)cc1 [Example 9, 1,3-Dihydro-6-[4-(methanesulfonylamino)phenyl]-5-methyl-2H-imidazo[4,5-b]pyridin-2-one]	–
0.094	9	CCCCS(=O)(=O)Nc1ccc(-c2cc3[nH]c(=O)[nH]c3nc2C)cc1 [Example 10, 6-[4-(Butanesulfonylamino)phenyl]-1,3-dihydro-5-methyl-2H-imidazo[4,5-b]pyridin-2-one]	–
0.053	5.6	CCCCCCS(=O)(=O)Nc1ccc(-c2cc3[nH]c(=O)[nH]c3nc2C)cc1 [Example 13, 1,3-Dihydro-6-[4-(hexanesulfonylamino)phenyl]-5-methyl-2H-imidazo[4,5-b]pyridin-2-one]	–
0.055	1.6	Cc1nc2[nH]c(=O)[nH]c2cc1-c1ccc(NS(=O)(=O)c2cccc3cccnc23)cc1 [Example 14, 1,3-Dihydro-6-[4-(8-quinolinylsulfonylamino)phenyl]-5-methyl-2H-imidazo[4,5-b]pyridin-2-one]	–
0.104	319	CCCNC(=O)Nc1ccc(-c2cc3[nH]c(=O)[nH]c3nc2C)cc1 [Example 15, 1,3-Dihydro-6-[4-(N'-propylureido)phenyl]-5-methyl-2H-imidazo[4,5-b]pyridin-2-one]	–

From patent US5010086A, “Imidazopyridines, compositions and use” (Sterling Drug Inc., priority 1990, dated 1991)
